These results are taken from PubChem BioAssay (NCI).

Some test systems named below: HCT-116 colon; BT-549 breast; HL-60(TB) leukemia; SK-MEL-5 melanoma; OVCAR-4 ovarian; TK-10 renal; HS 578T breast; K-562 leukemia; KM12 colon; MALME-3M melanoma.
Holding throughout (test): NCI-60 cell line screen, 48 h

SMILES strings stand for the structures.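 These data come from cells grown in 96-well plates and exposed to compound for 48 hours at five concentrations. The concentration for 50% growth inhibition is given as GI50. The concentration for full growth arrest is given as TGI.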 Some results are limits rather than exact numbers.

For the molecule `Cn1c(=S)c2[nH]c(SCCN3C(=O)c4ccccc4C3=O)nc2n(C)c1=O`, the TGI with HCT-116 colon, in the assay on BT-549 breast, with HL-60(TB) leukemia, in the assay on SK-MEL-5 melanoma, in the assay with OVCAR-4 ovarian and in the assay on TK-10 renal was greater than 100000 nM throughout. Further, the TGI in the assay on HS 578T breast, in the assay with K-562 leukemia, in the assay with KM12 colon and in the assay with MALME-3M melanoma was greater than 100000 nM each time.
As to `O=S(=O)(Nc1ccc(F)c(Cl)c1)c1ccc(-c2cnc(C3CC3)o2)cc1`, the GI50 was 334 nM in the assay with HCT-116 colon; 577 nM with BT-549 breast; 213 nM in the assay with HL-60(TB) leukemia; 316 nM in the assay with SK-MEL-5 melanoma; 1200 nM in the assay on OVCAR-4 ovarian; 1110 nM in the assay on TK-10 renal. The GI50 was 280 nM in the assay with HS 578T breast, 62.3 nM with K-562 leukemia, 151 nM in the assay with KM12 colon and 589 nM in the assay on MALME-3M melanoma. Further, the TGI stood at 10400 nM in the assay with HCT-116 colon; 9010 nM in the assay on BT-549 breast; 2160 nM in the assay on HL-60(TB) leukemia; 1670 nM in the assay on SK-MEL-5 melanoma; 11700 nM in the assay with OVCAR-4 ovarian; 8290 nM in the assay on TK-10 renal. Besides, the TGI in the assay with HS 578T breast is 4530 nM; in the assay on K-562 leukemia, greater than 52800 nM; in the assay on KM12 colon, 9300 nM; in the assay with MALME-3M melanoma, 16100 nM.
Consider `Cc1ccc(-c2nc([P+](c3ccccc3)(c3ccccc3)c3ccccc3)c(Nc3ccccc3)o2)cc1`, for which the GI50 was 265 nM in the assay with HCT-116 colon; 1530 nM in the assay on BT-549 breast; 395 nM in the assay on HL-60(TB) leukemia; 406 nM in the assay with SK-MEL-5 melanoma; 320 nM in the assay on OVCAR-4 ovarian; 1270 nM in the assay with TK-10 renal. Further, the GI50 in the assay with HS 578T breast is 1270 nM; in the assay on K-562 leukemia it was 326 nM; in the assay on KM12 colon it was 519 nM; with MALME-3M melanoma, 250 nM. Also, the TGI with HCT-116 colon was 1220 nM; in the assay on BT-549 breast it was 3020 nM; with HL-60(TB) leukemia, 1300 nM; with SK-MEL-5 melanoma, 1480 nM; in the assay with OVCAR-4 ovarian it was 1260 nM; in the assay on TK-10 renal it was 2780 nM. Also, the TGI in the assay on HS 578T breast came to 3310 nM; in the assay with K-562 leukemia it was 1270 nM; in the assay with KM12 colon it was 1830 nM; with MALME-3M melanoma, 801 nM.
As for `Cc1c(C(N)=O)sc2c1c(=O)n(Cc1ccccc1)c1nnc(-c3ccc(Br)cc3)n21`, the GI50 was 1750 nM in the assay with HCT-116 colon; 3850 nM with BT-549 breast; 4420 nM in the assay with HL-60(TB) leukemia; 1470 nM in the assay with SK-MEL-5 melanoma; 2510 nM in the assay with OVCAR-4 ovarian; 3330 nM in the assay with TK-10 renal. Further, the GI50 with HS 578T breast was 5200 nM; with K-562 leukemia, 3090 nM; in the assay on KM12 colon, 3310 nM; in the assay with MALME-3M melanoma, 2940 nM. Also, the TGI in the assay on HCT-116 colon was 13600 nM; with BT-549 breast, 18900 nM; with HL-60(TB) leukemia it was 38800 nM; in the assay with SK-MEL-5 melanoma, 4890 nM; in the assay with OVCAR-4 ovarian it was 15800 nM; in the assay with TK-10 renal it was 16300 nM. Moreover, the TGI with HS 578T breast stood at 54900 nM; in the assay on K-562 leukemia, 20400 nM; with KM12 colon, 17900 nM; in the assay with MALME-3M melanoma it was 13700 nM.
In the case of `O=C(C[P+](c1ccccc1)(c1ccccc1)c1ccccc1)C[P+](c1ccccc1)(c1ccccc1)c1ccccc1`, the GI50 in the assay on HCT-116 colon was 203 nM; in the assay with BT-549 breast, 363 nM; in the assay with HL-60(TB) leukemia, 256 nM; in the assay with SK-MEL-5 melanoma, 625 nM; in the assay on OVCAR-4 ovarian, 135 nM; with TK-10 renal, 326 nM. Besides, the GI50 with HS 578T breast was 581 nM; in the assay with K-562 leukemia, 306 nM; in the assay with KM12 colon, 1130 nM; in the assay with MALME-3M melanoma it was 335 nM. Also, the TGI was 547 nM in the assay with HCT-116 colon; 1240 nM in the assay on BT-549 breast; 2570 nM with HL-60(TB) leukemia; 1800 nM with SK-MEL-5 melanoma; 269 nM with OVCAR-4 ovarian; 1090 nM in the assay on TK-10 renal. Also, the TGI with HS 578T breast worked out at 4500 nM; with K-562 leukemia it was 7490 nM; in the assay with KM12 colon, 2630 nM; with MALME-3M melanoma it was 1480 nM.
In the case of `CCOC(=O)c1cnn2c3ccccc3n(S(=O)(=O)c3ccc(OC)cc3)c12`, the GI50 in the assay on HCT-116 colon is 305 nM; in the assay on BT-549 breast, 340 nM; in the assay with HL-60(TB) leukemia it was 226 nM; with SK-MEL-5 melanoma it was 319 nM; in the assay on OVCAR-4 ovarian it was 1580 nM; with TK-10 renal, 25200 nM. The GI50 in the assay on HS 578T breast was 459 nM; in the assay with K-562 leukemia, 55.3 nM; in the assay on KM12 colon, 196 nM; in the assay on MALME-3M melanoma it was 598 nM. In addition, the TGI with HCT-116 colon was greater than 50400 nM; in the assay with BT-549 breast it was 13100 nM; in the assay with HL-60(TB) leukemia it was 695 nM; in the assay on SK-MEL-5 melanoma, 2270 nM; in the assay on OVCAR-4 ovarian, greater than 100000 nM; in the assay on TK-10 renal, greater than 100000 nM. Further, the TGI in the assay on HS 578T breast was greater than 100000 nM; in the assay on K-562 leukemia it was greater than 100000 nM; with KM12 colon, 21900 nM; with MALME-3M melanoma, greater than 100000 nM.
For `O=C(/C=C/C12c3ccccc3C(c3ccccc31)C1C(=O)NC(=O)C12)c1ccc(Cl)cc1` (stereo not given), the GI50 in the assay on HCT-116 colon is 1230 nM; in the assay with BT-549 breast, 1340 nM; in the assay on HL-60(TB) leukemia it was 1470 nM; with SK-MEL-5 melanoma it was 1700 nM; in the assay on OVCAR-4 ovarian it was 1420 nM; in the assay with TK-10 renal, 1920 nM. In addition, the GI50 in the assay on HS 578T breast is 1940 nM; in the assay with K-562 leukemia it was 1990 nM; with KM12 colon, 2140 nM; in the assay on MALME-3M melanoma it was 1510 nM. Further, the TGI in the assay on HCT-116 colon is 2610 nM; in the assay on BT-549 breast, 2690 nM; in the assay on HL-60(TB) leukemia it was 8860 nM; with SK-MEL-5 melanoma, 3080 nM; with OVCAR-4 ovarian, 2760 nM; in the assay with TK-10 renal, 3520 nM. For the same molecule, the TGI in the assay on HS 578T breast is 7220 nM; in the assay with K-562 leukemia it was greater than 100000 nM; in the assay with KM12 colon it was 5440 nM; with MALME-3M melanoma it was 2880 nM.
